Measurements reported in US10047087B2, “Substituted pyrazolo[1,5-A] pyridine as tropomyosin receptor kinase (TrK) inhibitors” (Dr. Reddy's Laboratories Ltd., priority 2011, dated 2018).
Where two headings read alike, the source gives them in different places.

Assays:
TrkA kinase = target: T1, TrkA kinase (Homo sapiens, UniProt P04629); assay: In vitro TrkA inhibitory activity using TR-FRET assay; type: biochemical; conditions: 5 ng TrkA, 500 μM ATP
T1 construct: purchased Upstate, USA
Method in brief: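 Kinase (5 ng) was preincubated with compound for 30 min at 20-35° C before adding 40 nM ULight poly GT and 500 μM ATP; stopped with EDTA after 30 min. Eu-anti-phosphotyrosine antibody (0.5 nM) was read at 615/665 nm with 1% DMSO final. Compounds showing >25% inhibition at 1 μM went to sigmoidal dose-response IC50 fitting.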

[1] = Metabolic stability using Human Liver Microsomes (HLM); type: in vitro ADME; conditions: pooled human liver microsomes, compound 1 μM, 0.3 mg/ml microsomal protein, 1 mM NADPH
Procedure: Stability Protocol: Metabolic Stability Using Rat Liver Microsomes (RLM) and Human Liver Microsomes (HLM).
This assay was performed using pooled male rat liver microsomes (In-house prepared as per SOP), Pooled Human liver microsomes (XENOTECH; Batch No— H0630-1110189)). The 100 μl reaction contains the compounds at 1 μM, 0.3 mg/ml microsomal protein and both the co-factors (1 mM NADPH) in buffer and the mixture was incubated at different time points (0, 15, 30, 45, 60, & 90 minutes). The reaction was stopped by the addition of equal volume of acetonitrile containing internal standard (Telmesartin). The precipitated protein was removed by centrifugation and the supernatant were analyzed LC/MS-MS method. The percent parent compound remaining was quantified by analysis using following formula (% parent compound remaining=(peak area at Time x/peak area at T0)×100. The intrinsic clearance was calculated using the following formula. CLint,app: (0.693/in vitro t½)(incubation volume/mg of microsomal protein)(45 mg microsomal protein/gram of liver)(20^a g of liver/kg body weight) • a: 20 and 45 g of liver/kg of body weight were used for human and rat, respectively (Lu C et al., DMD, 2006). Bio-analysis: It was performed in Multiple Reaction Monitoring mode (negative mode) using Applied Biosystems API 4000 coupled to Agilent Technologies 1100 series HPLC on a reverse phase column (Zorbax Eclipse XDB C18, 50×4.6 mm, 5 μm). Celecoxib was used as internal standard both in in-vitro and in-vivo experiments. Mobile phase used 0.05% […] water and acetonitrile (10:90) with a flow rate of 0.6 ml/minute. The injection volume was kept as 10 μl.

[2] = read-out: TrkA inhibition in-vitro IC50
[3] = both bounds given in nm, read-out: TrkA inhibitory activity in-vitro IC50

T1 sequence (P04629 33-796): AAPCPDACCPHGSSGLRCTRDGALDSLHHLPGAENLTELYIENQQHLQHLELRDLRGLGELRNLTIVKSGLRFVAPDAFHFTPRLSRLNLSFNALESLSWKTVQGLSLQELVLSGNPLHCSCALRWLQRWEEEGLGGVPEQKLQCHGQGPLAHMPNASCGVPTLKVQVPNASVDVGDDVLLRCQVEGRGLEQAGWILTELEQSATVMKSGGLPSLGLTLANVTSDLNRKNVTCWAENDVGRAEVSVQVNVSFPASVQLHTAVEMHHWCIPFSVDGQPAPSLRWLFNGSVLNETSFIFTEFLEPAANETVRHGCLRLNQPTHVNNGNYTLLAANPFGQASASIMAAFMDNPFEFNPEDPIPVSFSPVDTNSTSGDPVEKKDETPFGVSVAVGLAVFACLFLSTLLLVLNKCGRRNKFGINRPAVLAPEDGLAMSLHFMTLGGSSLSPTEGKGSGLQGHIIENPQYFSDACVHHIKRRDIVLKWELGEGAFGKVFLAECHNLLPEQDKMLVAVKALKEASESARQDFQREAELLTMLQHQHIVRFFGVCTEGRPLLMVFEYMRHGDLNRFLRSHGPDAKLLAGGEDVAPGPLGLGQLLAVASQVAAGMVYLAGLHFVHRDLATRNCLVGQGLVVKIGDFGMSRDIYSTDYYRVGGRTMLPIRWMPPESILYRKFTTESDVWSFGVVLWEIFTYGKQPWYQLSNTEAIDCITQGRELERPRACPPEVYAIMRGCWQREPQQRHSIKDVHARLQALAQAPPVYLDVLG

Structure (SMILES)	IC50 (TrkA kinase; [2])	half-life at 1 μM [1]	IC50 (TrkA kinase; [3])
CC(C)(C)S(=O)(=O)NC(=O)c1cnn2ccc(N3CCC[C@@H]3c3cc(F)ccc3OCC3CC3)cc12 [Example 46, (R)-N-(tert-butylsulfonyl)-5-(2-(2-(cyclopropylmethoxy)-5-fluorophenyl)pyrrolidin-1-yl)pyrazolo[1,5-a]pyridine-3-carboxamide]	50 to 100 nM	> 1.33 h	–
CCCS(=O)(=O)NC(=O)c1cnn2ccc(N3CCC[C@@H]3c3cc(F)ccc3F)cc12 [Example 10, (R)-5-(2-(2,5-difluorophenyl)pyrrolidin-1-yl)-N-(propylsulfonyl)pyrazolo[1,5-a] pyridine-3-carboxamide]	≤ 50 nM	> 1.33 h	–
CC(C)(C)S(=O)(=O)NC(=O)c1cnn2ccc(N3CCC[C@@H]3c3cc(F)ccc3F)cc12 [Example 2, (R)-N-(tert-butylsulfonyl)-5-(2-(2,5-difluorophenyl)pyrrolidin-1-yl) pyrazolo[1,5-a]pyridine-3-carboxamide]	≤ 50 nM	> 1.33 h	–
CCS(=O)(=O)NC(=O)c1cnn2ccc(N3CCC[C@@H]3c3cc(F)ccc3F)cc12 [Example 3, (R)-5-(2-(2,5-difluorophenyl)pyrrolidin-1-yl)-N-(ethylsulfonyl)pyrazolo[1,5-a]pyridine-3-carboxamide]	–	> 1.33 h	100 to 500 nM
CCN(C)S(=O)(=O)NC(=O)c1cnn2ccc(N3C[C@@H](F)C[C@@H]3c3cc(F)ccc3F)cc12 [Example 79, 5-((2R,4S)-2-(2,5-difluorophenyl)-4-fluoropyrrolidin-1-yl)-N-(N-ethyl-N-methylsulfamoyl) pyrazolo[1,5-a]pyridine-3-carboxamide]	≤ 50 nM	> 1.33 h	–
O=C(NS(=O)(=O)c1ccc2c(c1)OCO2)c1cnn2ccc(N3CCC[C@@H]3c3cc(F)ccc3F)cc12 [Example 35, (R)-N-(benzo[d][1,3]dioxol-5-ylsulfonyl)-5-(2-(2,5-difluorophenyl)pyrrolidin-1-yl)pyrazolo[1,5-a]pyridine-3-carboxamide]	50 to 100 nM	> 1.33 h	–
CC(C)S(=O)(=O)NC(=O)c1cnn2ccc(N3CCC[C@@H]3c3cc(F)ccc3F)c(F)c12 [Example 75, (R)-5-(2-(2,5-difluorophenyl)pyrrolidin-1-yl)-4-fluoro-N-(isopropylsulfonyl)pyrazolo[1,5-a]pyridine-3-carboxamide]	–	> 1.33 h	100 to 500 nM
CC(C)(C)S(=O)(=O)NC(=O)c1cnn2ccc(N3C[C@@H](F)C[C@@H]3c3cc(F)ccc3F)cc12 (single isomer, unassigned) [Example 52]	≤ 50 nM	> 1.33 h	–
CC(C)(C)S(=O)(=O)NC(=O)c1cnn2ccc(N3CCCC3c3cc(F)cc4c3OCCO4)cc12 (single isomer, unassigned) [Example 50, N-(tert-butylsulfonyl)-5-(2-(7-fluoro-2,3-dihydrobenzo [b][1,4]dioxin-5-yl)pyrrolidin-1-yl)pyrazolo[1,5-a]pyridine-3-carboxamide]	–	> 1.33 h	100 to 500 nM
COCCOc1ccc(F)cc1[C@H]1CCCN1c1ccn2ncc(C(=O)NS(=O)(=O)C(C)(C)C)c2c1 [Example 65, (R)-N-(tert-butylsulfonyl)-5-(2-(5-fluoro-2-(2-methoxyethoxy)phenyl)pyrrolidin-1-yl)pyrazolo [1,5-a]pyridine-3-carboxamide]	≤ 50 nM	> 1.33 h	–
O=C(NS(=O)(=O)c1ccc(N2CC[C@H](O)C2)nc1)c1cnn2ccc(N3CCC[C@@H]3c3cc(F)ccc3F)cc12 [Example 25, 5-((R)-2-(2,5-difluorophenyl)pyrrolidin-1-yl)-N-((6-((S)-3-hydroxypyrrolidin-1-yl)pyridin-3-yl)sulfonyl)pyrazolo[1,5-a] pyridine-3-carboxamide]	≤ 50 nM	> 1.33 h	–
N#Cc1cccc(S(=O)(=O)NC(=O)c2cnn3ccc(N4CCC[C@@H]4c4cc(F)ccc4F)cc23)c1 [Example 4, (R)-N-((3-cyanophenyl)sulfonyl)-5-(2-(2,5-difluorophenyl)pyrrolidin-1-yl)pyrazolo[1,5-a]pyridine-3-carboxamide]	50 to 100 nM	> 1.33 h	–
CC(C)(C)S(=O)(=O)NC(=O)c1cnn2ccc(N3CCC[C@@H]3c3cc(F)ccc3OC3CCOC3)cc12 (stereo partly drawn) [Example 59, N-(tert-butylsulfonyl)-5-((2R)-2-(5-fluoro-2-((tetrahydrofuran-3-yl)oxy)phenyl)pyrrolidin-1-yl)pyrazolo[1,5-a]pyridine-3-carboxamide]	≤ 50 nM	> 1.33 h	–
CCOc1ccc(F)cc1[C@H]1CCCN1c1ccn2ncc(C(=O)NS(=O)(=O)C(C)(C)C)c2c1 [Example 45, (R)-N-(tert-butylsulfonyl)-5-(2-(2-ethoxy-5-fluorophenyl)pyrrolidin-1-yl)pyrazolo[1,5-a]pyridine-3-carboxamide]	50 to 100 nM	> 1.33 h	–
CC(C)(C)S(=O)(=O)NC(=O)c1cnn2ccc(N3CCC[C@@H]3c3cc(F)ccc3OCCF)cc12 [Example 57, (R)-N-(tert-butylsulfonyl)-5-(2-(5-fluoro-2-(2-fluoroethoxy)phenyl)pyrrolidin-1-yl) pyrazolo[1,5-a]pyridine-3-carboxamide]	≤ 50 nM	> 1.33 h	–
CCN(C)S(=O)(=O)NC(=O)c1cnn2ccc(N3CCC[C@@H]3c3cc(F)ccc3OC)cc12 [Example 91, (R)-N-(N-ethyl-N-methylsulfamoyl)-5-(2-(5-fluoro-2-methoxyphenyl)pyrrolidin-1-yl)pyrazolo[1,5-a]pyridine-3-carboxamide]	≤ 50 nM	> 1.33 h	–
CC1(S(=O)(=O)NC(=O)c2cnn3ccc(N4C[C@@H](F)C[C@@H]4c4cc(F)ccc4F)cc23)CC1 [Example 74, 5-((2R,4S)-2-(2,5-difluorophenyl)-4-fluoropyrrolidin-1-yl)-N-((1-methylcyclopropyl)sulfonyl)pyrazolo[1,5-a]pyridine-3-carboxamide]	≤ 50 nM	> 1.33 h	–
CCN(C)S(=O)(=O)NC(=O)c1cnn2ccc(N3C[C@@H](F)C[C@@H]3c3cccc(F)c3)c(F)c12 [Example 102, N-(N-ethyl-N-methylsulfamoyl)-4-fluoro-5-((2R,4S)-4-fluoro-2-(3-fluorophenyl)pyrrolidin-1-yl)pyrazolo[1,5-a]pyridine-3-carboxamide]	–	> 1.33 h	–
CN(C)S(=O)(=O)NC(=O)c1cnn2ccc(N3C[C@@H](F)C[C@@H]3c3cc(F)ccc3F)cc12 [Example 78, 5-((2R,4S)-2-(2,5-difluorophenyl)-4-fluoropyrrolidin-1-yl)-N-(N,N-dimethylsulfamoyl) pyrazolo[1,5-a]pyridine-3-carboxamide]	≤ 50 nM	> 1.33 h	–
O=C(NS(=O)(=O)c1ccc(F)cc1)c1cnn2ccc(N3CCC[C@@H]3c3cc(F)ccc3F)cc12 [Example 1, (R)-5-(2-(2,5-difluorophenyl)pyrrolidin-1-yl)-N-((4-fluorophenyl)sulfonyl)pyrazolo[1,5-a]pyridine-3-carboxamide]	–	> 1.33 h	100 to 500 nM
Cc1ccccc1S(=O)(=O)NC(=O)c1cnn2ccc(N3CCC[C@@H]3c3cc(F)ccc3F)cc12 [Example 39, (R)-5-(2-(2,5-difluorophenyl)pyrrolidin-1-yl)-N-(o-tolylsulfonyl)pyrazolo[1,5-a]pyridine-3-carboxamide]	–	> 1.33 h	–
